{"source": "patent US9994548B2", "about": "“Phenyl-substituted nicotinic ligands, and methods of use thereof” (Georgetown University, priority 2011, dated 2018)", "key": {"α3β4 nAChR": {"target": "T1, α3β4 nAChR (Rattus norvegicus, UniProt P04757+P12392)", "T1 construct": "expressed in transfected cells; host or cells: HEK 293 (KXα3β4R2)", "experiment": "[3H]-epibatidine radioligand competition binding assay", "conditions": "competition against [3H]-epibatidine, stably transfected cell membranes; read-out: Ki α3β4", "procedure": "(§1) Stably transfected cell lines, tissue culture conditions, membrane preparation procedures and binding assays were described previously. Briefly, cultured cells at >80% confluence were removed from their flasks (80 cm^2) with a disposable cell scraper and placed in 10 mL of 50 mM Tris.HCl buffer (pH 7.4, 4° C.). The cell suspension was centrifuged at 10,000×g for 5 min and the pellet was collected. The cell pellet was then homogenized in 10 mL buffer with a polytron homogenizer and centrifuged at 36,000 g for 10 min at 4° C. The membrane pellet was resuspended in fresh buffer, and aliquots of the membrane preparation were used for binding assays. The concentration of [^3H]-epibatidine used was ˜500 pM for competition binding assays. […] Bound and free ligands were separated by vacuum filtration through Whatman GF/C filters treated with 0.5% polyethylenimine. The filter-retained radioactivity was measured by liquid scintillation counting. Specific binding was defined as the difference between total binding and nonspecific binding. Data from competition binding assays were analyzed using Prism 5 (GraphPad Software, San Diego, Calif.).\n(§2) The in vitro binding affinities of the new ligands were measured for defined receptor subtypes (α2β2, α2β4, α3β2, α3β4, α4β2, α4β4, α6β2, α6β4, and α7) expressed in stably transfected cell lines. [^3H]Epibatidine ([^3H]EB) binds to the agonist recognition site of all of the defined receptor subtypes with high affinities. Rat forebrain homogenates were included to allow comparison between the heterologous and native α4β2 and α7 nAChRs. See FIG. 18 for binding affinity values (Ki) of the ligands at the three major nAChR subtypes (α3β4, […], and α7).\n(§3) The binding affinities of all compounds synthesized for the receptor subtypes were examined in binding competition studies against [^3H]-epibatidine."}, "α4β2 nAChR": {"target": "T2, α4β2 nAChR (Rattus norvegicus, UniProt P09483+P12390)", "T2 construct": "expressed in transfected cells", "experiment": "[3H]-epibatidine radioligand competition binding assay", "conditions": "competition against [3H]-epibatidine, stably transfected cell membranes; read-out: Ki α4β2", "procedure": "as §1, §2, §3"}, "α7 nAChR": {"target": "T3, α7 nAChR (Rattus norvegicus, UniProt Q05941)", "T3 construct": "expressed in transfected cells", "experiment": "[3H]-epibatidine radioligand competition binding assay", "conditions": "competition against [3H]-epibatidine", "procedure": "as §1, §2, §3"}, "human α4β2 nAChRs": {"target": "T4, human α4β2 nAChRs (Homo sapiens, UniProt P17787+P43681)", "T4 construct": "expressed in transfected cells", "experiment": "86Rb+ efflux assay in stably transfected cells", "format": "cell-based", "procedure": "(§4) The cell line expressing rat α3β4 nAChRs, KXα3β4R2, was established previously by stably transfecting HEK 293 cells with combinations of rat nAChR α3 and β4 subunit genes. The cell line expressing human α4β2 nAChRs, YXα4β2H1, were established recently (Tuan et al., 2012, manuscript in preparation). These cell lines were maintained in minimum essential medium (MEM) supplemented with 10% fetal bovine serum, 100 units/mL penicillin G, […] streptomycin and selective antibiotics at 37° C. with 5% CO2 in a humidified incubator. Tissue culture medium and antibiotics were obtained from Invitrogen Corporation (Carlsbad, Calif.), unless otherwise stated. Fetal bovine serum and horse serum were provided by Gemini Bio-Products (Woodland, Calif.).\n(§5) Functional properties of compounds at nAChRs expressed in the transfected cells were measured using ^86Rb^+ efflux assays as described previously. In brief, cells were plated into 24-well plates coated with poly-D-lysine. The plated cells were grown at 37° C. for 18 to 24 hour to reach 85-95% confluence. The cells were then incubated in growth medium (0.5 mL/well) containing ^86Rb^+ (2 μCi/mL) for 4 hour at 37° C. The loading mixture was then aspirated, and the cells were washed four times with 1 mL buffer (15 mM HEPES, 140 mM NaCl, 2 mM KCl, 1 mM MgSO4, 1.8 mM CaCl2, 11 mM Glucose, pH 7.4). One mL of buffer with or without compounds to be tested was then added to each well. After incubation for 2 min, the assay buffer was collected for measurements of ^86Rb^+ released from the cells. Cells were then lysed by adding 1 mL of 100 mM NaOH to each well, and the lysate was collected for determination of the amount of ^86Rb^+ that was in the cells at the end of the efflux assay. Radioactivity of assay samples and lysates was measured by liquid scintillation counting. Total loading (cpm) was calculated as the sum of the assay sample and the lysate of each well. The amount of ^86Rb^+ efflux was expressed as a percentage of ^86Rb^+ loaded. […] For obtaining EC50 and Emax values, stimulation curves were constructed in which 8 different concentrations of a ligand were included in the assay. […] EC50, Emax and IC50(10′) values were determined by nonlinear least-squares regression analyses (GraphPad, San Diego, Calif.).\n(§6) Functional properties of the new ligands were determined by ^86Rb^1 efflux assays in cells expressing α3β4 and α4β2 nAChR subtypes. Functional activity of each new ligand was measured in terms of its agonism, antagonism and desensitization ability.\n(§7) Agonist activity of each of the ligands was tested at eight concentrations. […] The full concentration-effect curves generated potency (EC50) and efficacy (Emax) of each ligand.\n(§8) Though the ^86Rb^+ efflux assays were the main methodology used to determine functional properties, whole-cell current measurements were also used to verify the key experiments."}, "rat α3β4 nAChRs": {"target": "T5, rat α3β4 nAChRs (Rattus norvegicus, UniProt P04757+P12392)", "T5 construct": "expressed in transfected cells; host or cells: HEK 293 (KXα3β4R2)", "experiment": "86Rb+ efflux assay in stably transfected cells", "format": "cell-based", "conditions": "86Rb+ efflux, rat α3β4", "procedure": "as §4, §5, §6, §7, §8"}, "[1]": {"test_system": "nicotine self-administration", "experiment": "Nicotine self-administration in rats", "format": "in vivo, rat", "procedure": "The studies were conducted in accordance with the regulations outlined by the Duke University Animal Care and Use Committee. The rats housed in approved standard laboratory conditions in a Duke University vivarium facility near the testing room to minimize stress induced by transporting the rats. The rats were kept on a 12:12 reverse day/night cycle, so that they were in their active phase during behavioral testing. The rats in the drug iv self-administration studies were singly housed to prevent them from damaging each other's catheters. The rats in the locomotor activity studies were housed in groups of 2-3. All rats were allowed access to water at all times; the rats in the nicotine-self-administration study were fed daily approximately 30 minutes after completing the sessions while those in the locomotor activity study had continuous access to food.\nVMY-2-95 was injected s.c. 10 minutes before testing in a volume of 1 mL/kg of saline. The doses (0, 0.3, 1 and 3 mg/kg) were given in a counterbalanced order with at least two days between successive injections.\nEach infusion was immediately followed by a one-minute period in which the cue lights went out, the house light came on and responses were recorded but not reinforced.\nAfter food training, the animals were surgically implanted with jugular catheters. […] Alpha of p<0.05 (two-tailed) was used as the threshold for significance."}}, "note": "Entries after “also recorded” stand apart in the source; their conditions may differ.", "data": [{"smiles": "C(#Cc1cncc(OC[C@@H]2CCN2)c1)c1ccccc1", "note": "[VMY-2-95, (S)-3-(azetidin-2-ylmethoxy)-5-(phenylethynyl)pyridine]", "values": [{"measurement": "Ki", "setting": "α3β4 nAChR", "value": 650, "unit": "nM"}, {"measurement": "Ki", "setting": "α4β2 nAChR", "value": 0.049, "unit": "nM"}, {"measurement": "Ki", "setting": "α7 nAChR", "value": 580, "unit": "nM"}, {"measurement": "EC50", "setting": "human α4β2 nAChRs", "value": 8.6, "unit": "nM"}, {"measurement": "agonist activity at α4β2 receptors", "setting": "human α4β2 nAChRs; 86Rb+ efflux, human α4β2", "value": "clear agonist activity"}, {"measurement": "IC50", "setting": "human α4β2 nAChRs; 10 min pre-treatment before 100 μM (−)-nicotine, read-out: IC50(10′) α4β2 (desensitization potency)", "value": 16, "unit": "nM"}, {"measurement": "inhibition of nicotine activation of α4β2 receptors", "setting": "human α4β2 nAChRs; preincubated with the cells for 10 min", "value": "inhibited"}, {"measurement": "agonist activity at α3β4 nAChRs", "setting": "rat α3β4 nAChRs", "value": "did not show any detectable agonist activity; also recorded: does not show agonist activity"}, {"measurement": "nicotine self-administration (number of nicotine infusions) vs saline vehicle", "setting": "[1]; 3 mg/kg s.c., 10 min before session, p<0.025", "value": "significantly reduces; also recorded: significant (p<0.025) decrease"}, {"measurement": "intravenous nicotine self-administration, overall dose effect", "setting": "[1]; 0.3, 1, 3 mg/kg s.c., F(3,42)=3.36, p<0.05", "value": "decreased intravenous nicotine self-administration in a dose-dependent manner"}, {"measurement": "nicotine self-administration vs saline vehicle", "setting": "[1]; lower doses 0.3 and 1 mg/kg s.c.", "value": "did not produce significant decreases; also recorded: did not produce significant effects"}]}]}
